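How tested: cells in 96-well plates exposed to compound for 48 hours at five concentrations. GI50: concentration for 50% inhibition of growth.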 The source made the active and inactive calls. No stated cut-off is given here; in the data, active = GI50 up to about 1.1 µM and inactive = higher.
Legend:
Test in all cases: NCI tumour cell line growth inhibition, 48 h
HCT-15 = test system: HCT-15
KM-20L2 = test system: KM-20L2
A549 = test system: A549
DMS-273 = test system: DMS-273
SW-620 = test system: SW-620
ACHN = test system: ACHN
EKVX = test system: EKVX
SR = test system: SR
A498 = test system: A498
CCRF-CEM = test system: CCRF-CEM
HOP-62 = test system: HOP-62
UO-31 = test system: UO-31
K562 = test system: K562
RPMI-8226 = test system: RPMI-8226
COLO 205 = test system: COLO 205
HT-29 = test system: HT-29
LOX IMVI = test system: LOX IMVI
DLD-1 = test system: DLD-1
NCI-H23 = test system: NCI-H23
OVCAR-5 = test system: OVCAR-5
SF-539 = test system: SF-539
HL-60 = test system: HL-60
LXFL 529 = test system: LXFL 529
UACC-257 = test system: UACC-257
SK-MEL-2 = test system: SK-MEL-2
RXF 631 = test system: RXF 631
SNB-75 = test system: SNB-75
NCI-H522 = test system: NCI-H522
SK-MEL-5 = test system: SK-MEL-5
CAKI-1 = test system: CAKI-1
SN12C = test system: SN12C
SF-295 = test system: SF-295
OVCAR-8 = test system: OVCAR-8
HCC 2998 = test system: HCC 2998
SK-MEL-28 = test system: SK-MEL-28
HOP-92 = test system: HOP-92
DMS-114 = test system: DMS-114
SNB-78 = test system: SNB-78
M19-MEL = test system: M19-MEL
SNB-19 = test system: SNB-19
U-251 = test system: U-251
IGROV-1 = test system: IGROV-1
Malme-3M = test system: Malme-3M
M14 = test system: M14
SF-268 = test system: SF-268
HCT-116 = test system: HCT-116
HOP-18 = test system: HOP-18
SK-OV-3 = test system: SK-OV-3
OVCAR-3 = test system: OVCAR-3
786-0 = test system: 786-0
MOLT-4 = test system: MOLT-4
TK-10 = test system: TK-10
OVCAR-4 = test system: OVCAR-4
UACC-62 = test system: UACC-62
NCI-H226 = test system: NCI-H226
RXF 393 = test system: RXF 393
NCI-H460 = test system: NCI-H460
KM12 = test system: KM12
XF498 = test system: XF498

Measured: GI50

Cc1cccc(N2C(=O)C(=O)C(c3nc4ccccc4s3)C(=O)C2=O)c1C
> 100 µM: HCT-15
inactive: KM-20L2 > 100 µM | A549 > 100 µM | DMS-273 > 100 µM | SW-620 > 100 µM | ACHN > 100 µM | EKVX > 100 µM | SR > 100 µM | A498 > 100 µM | CCRF-CEM 35.7 µM | HOP-62 > 100 µM | UO-31 > 100 µM | K562 > 100 µM | RPMI-8226 > 100 µM | COLO 205 > 100 µM | HT-29 > 100 µM | LOX IMVI > 100 µM | DLD-1 > 100 µM | NCI-H23 > 100 µM | OVCAR-5 > 100 µM | SF-539 > 100 µM | LXFL 529 > 100 µM | UACC-257 > 100 µM | SK-MEL-2 > 100 µM | RXF 631 > 100 µM | SNB-75 > 100 µM | NCI-H522 > 100 µM | SK-MEL-5 > 100 µM | CAKI-1 > 100 µM | SN12C > 100 µM | SF-295 > 100 µM | OVCAR-8 > 100 µM | HCC 2998 > 100 µM | SK-MEL-28 > 100 µM | HOP-92 > 100 µM | DMS-114 > 100 µM | SNB-78 > 100 µM | M19-MEL > 100 µM | SNB-19 > 100 µM | U-251 > 100 µM | IGROV-1 > 100 µM | Malme-3M > 100 µM | M14 > 100 µM | SF-268 > 100 µM | HCT-116 > 100 µM | HOP-18 > 100 µM | SK-OV-3 > 100 µM | OVCAR-3 > 100 µM | 786-0 > 100 µM | MOLT-4 > 100 µM | TK-10 > 100 µM | OVCAR-4 > 100 µM | UACC-62 > 100 µM | NCI-H226 > 100 µM
active: HL-60 < 0.01 µM

CC(=O)N1[C@H](C(=O)O)CS[C@H]1c1ccc(F)cc1
inactive: A549 > 100 µM | SW-620 > 100 µM | ACHN > 100 µM | SR > 100 µM | A498 > 100 µM | CCRF-CEM > 100 µM | HOP-62 > 100 µM | UO-31 > 100 µM | K562 > 100 µM | RXF 393 > 100 µM | COLO 205 > 100 µM | HT-29 > 100 µM | LOX IMVI > 100 µM | NCI-H23 > 100 µM | OVCAR-5 > 100 µM | SF-539 > 100 µM | HL-60 > 100 µM | LXFL 529 > 100 µM | UACC-257 > 100 µM | RXF 631 > 100 µM | SNB-75 > 100 µM | SK-MEL-5 > 100 µM | CAKI-1 > 100 µM | SN12C > 100 µM | SF-295 > 100 µM | OVCAR-8 > 100 µM | HCC 2998 > 100 µM | SK-MEL-28 > 100 µM | HOP-92 > 100 µM | DMS-114 > 100 µM | SNB-78 > 100 µM | M19-MEL > 100 µM | SNB-19 > 100 µM | IGROV-1 > 100 µM | NCI-H460 > 100 µM | Malme-3M > 100 µM | M14 > 100 µM | SF-268 > 100 µM | HCT-116 29.1 µM | HOP-18 > 100 µM | OVCAR-3 > 100 µM | 786-0 > 100 µM | MOLT-4 > 100 µM | TK-10 > 100 µM | OVCAR-4 > 100 µM | NCI-H226 > 100 µM
> 100 µM: HCT-15

COc1ccc(/C(C)=N/NC(N)=S)c(OC)c1
> 100 µM: HCT-15
inactive: KM-20L2 > 100 µM | A549 > 100 µM | SW-620 43.3 µM | ACHN > 100 µM | EKVX 63.4 µM | SR > 100 µM | A498 > 100 µM | KM12 > 100 µM | CCRF-CEM > 100 µM | HOP-62 > 100 µM | UO-31 > 100 µM | K562 > 100 µM | RPMI-8226 > 100 µM | RXF 393 > 100 µM | COLO 205 > 100 µM | HT-29 > 100 µM | LOX IMVI > 100 µM | DLD-1 > 100 µM | NCI-H23 > 100 µM | OVCAR-5 > 100 µM | SF-539 > 100 µM | HL-60 51.3 µM | LXFL 529 > 100 µM | UACC-257 > 100 µM | SK-MEL-2 > 100 µM | RXF 631 > 100 µM | SNB-75 > 100 µM | NCI-H522 18.4 µM | SK-MEL-5 > 100 µM | CAKI-1 > 100 µM | SN12C > 100 µM | SF-295 > 100 µM | OVCAR-8 > 100 µM | HCC 2998 > 100 µM | SK-MEL-28 > 100 µM | HOP-92 > 100 µM | DMS-114 97.1 µM | XF498 > 100 µM | SNB-78 > 100 µM | M19-MEL > 100 µM | SNB-19 > 100 µM | U-251 49.1 µM | IGROV-1 > 100 µM | NCI-H460 > 100 µM | Malme-3M > 100 µM | M14 > 100 µM | SF-268 > 100 µM | HCT-116 > 100 µM | HOP-18 > 100 µM | SK-OV-3 > 100 µM | OVCAR-3 > 100 µM | 786-0 > 100 µM | MOLT-4 > 100 µM | TK-10 > 100 µM | UACC-62 > 100 µM | NCI-H226 > 100 µM

O=C(O)C1C2CC3CC2CC31 (stereo not given)
inactive: A549 > 100 µM | DMS-273 > 100 µM | SW-620 > 100 µM | ACHN > 100 µM | EKVX > 100 µM | A498 > 100 µM | KM12 > 100 µM | CCRF-CEM > 100 µM | HOP-62 > 100 µM | UO-31 > 100 µM | K562 > 100 µM | RPMI-8226 > 100 µM | RXF 393 > 100 µM | COLO 205 > 100 µM | LOX IMVI > 100 µM | NCI-H23 > 100 µM | OVCAR-5 > 100 µM | SF-539 > 100 µM | HL-60 > 100 µM | LXFL 529 > 100 µM | UACC-257 > 100 µM | SK-MEL-2 > 100 µM | RXF 631 > 100 µM | SNB-75 > 100 µM | NCI-H522 > 100 µM | SK-MEL-5 > 100 µM | CAKI-1 > 100 µM | SN12C > 100 µM | SF-295 > 100 µM | OVCAR-8 > 100 µM | SK-MEL-28 > 100 µM | HOP-92 > 100 µM | DMS-114 > 100 µM | XF498 > 100 µM | SNB-78 > 100 µM | SNB-19 > 100 µM | U-251 > 100 µM | IGROV-1 > 100 µM | NCI-H460 > 100 µM | Malme-3M > 100 µM | M14 > 100 µM | SF-268 > 100 µM | HCT-116 > 100 µM | SK-OV-3 > 100 µM | OVCAR-3 > 100 µM | 786-0 > 100 µM | MOLT-4 > 100 µM | TK-10 > 100 µM | OVCAR-4 > 100 µM | UACC-62 > 100 µM
> 100 µM: HCT-15

Source: ChEMBL document CHEMBL1201862, “PubChem BioAssay data set” (2004)
